Results on 14 molecules are retold here after ChEMBL document CHEMBL1144635, “Lead optimization of methionine aminopeptidase-2 (MetAP2) inhibitors containing sulfonamides of 5,6-disubstituted anthranilic acids” (Bioorg Med Chem Lett, 2007).

The term EC50 denotes the concentration needed to bring the measured effect to its halfway point. In general, Cmax refers to the peak of the concentration-time curve. As a reminder, the clearance is the rate of elimination divided by the concentration. High values mean a high capacity for elimination, low ones a low capacity for elimination. What is called half-life is how long it takes for the measured level to halve. A word on the bioavailability: it is dose-corrected exposure relative to a reference, in per cent. Read a low bioavailability as little systemic uptake.

The test system of series [1] is HT-1080. Briefly: Antiproliferative activity against HT1080 cells. As to conditions: Homo sapiens.
Series [2] has as its system HT-1080. Briefly: Antiproliferative activity against HT1080 cells in presence of 40 mg/ml HSA. As to conditions: Homo sapiens.
Series [3] can be described thus: Cmax in mouse at 30 mg/kg, po. Also on record: dose 30 mg/kg, route oral. Type of series: ADME, organism-based. Conditions: in vivo.
Series [4] is described as follows: Volume of distribution in mouse at 10 mg/kg, iv. The class given is ADME, organism-based. Also on record: dose 10 mg/kg, route intravenous. Conditions: in vivo, read-out: Vdss.
The nature of series [5]: Clearance in mouse at 10 mg/kg, iv. Type of series: ADME, organism-based. Further details: dose 10 mg/kg, route intravenous. As to conditions: in vivo.
Series [6] can be described thus: Half life in mouse at 10 mg/kg, iv. The class given is ADME, organism-based. Further details: dose 10 mg/kg, route intravenous. As to conditions: in vivo.
Series [7] is described as follows: Oral bioavailability in mouse at 30 mg/kg, po. The class given is ADME, organism-based. As to conditions: in vivo.

The structures appear in SMILES notation.

`CCc1ccc(NS(=O)(=O)c2ccc(F)cc2)c(C(=O)O)c1C` registered a concentration giving a half-maximal response (EC50) in the series on HT-1080 [1] of 4.9 µM.

As to `CCc1ccc(NS(=O)(=O)c2ccc(F)cc2)c(C(=O)O)c1OC`, it took 1.4 µM to reach a half-maximal effect in the series with HT-1080 [1] (EC50).

In the series with HT-1080 [1], `CCc1ccc(NS(=O)(=O)c2ccc(F)cc2CCCN(CC)CC)c(C(=O)O)c1OCCN` yielded a concentration for a half-maximal effect (EC50) of 30 µM.

Consider `CCc1ccc(NS(=O)(=O)c2ccccc2NCCCCN(C)C)c(C(=O)O)c1OC`, for which the EC50 was 0.37 µM with HT-1080 [2] and 0.25 µM in the series on HT-1080 [1]. Moreover, the concentration in series [3] peaked (Cmax) at 5900 nM. For the same molecule, in series [4], the Vd is 0.8 L/kg. Moreover, the clearance in series [5] is 35 mL/min/kg. This molecule also gave a half-life in series [6] of 18 min. In series [7], this molecule displayed a bioavailability of 31%.

In series [3], `CCc1ccc(NS(=O)(=O)c2ccc(F)cc2)c(C(=O)O)c1OCCN` gave a peak concentration (Cmax) of 2400 nM. Moreover, in series [4], the Vd stood at 1.1 L/kg. In series [5], this molecule had a clearance of 50 mL/min/kg. In series [6], this molecule showed a half-life of 18 min. In series [7], this molecule returned a bioavailability of 38%.

Molecule `CCc1ccc(NS(=O)(=O)c2ccccn2)c(C(=O)O)c1C` displayed a Cmax in series [3] of 34000 nM. In the series with HT-1080 [1], the response was half-maximal at 12 µM (EC50). Besides, the Vd in series [4] amounted to 5.5 L/kg. In series [5], this molecule gave a clearance of 26.7 mL/min/kg. For the same molecule, in series [6], the half-life was 144 min. In series [7], this molecule yielded a bioavailability of 86%.

With `CCc1ccc(NS(=O)(=O)c2ccc(F)cc2/C=C\CN(CC)CC)c(C(=O)O)c1OC`, the concentration for a half-maximal effect (EC50) with HT-1080 [2] is 0.15 µM; in the series with HT-1080 [1] it was 0.07 µM. Further, in series [3], the peak level (Cmax) was 100 nM. In addition, the Vd in series [4] turned out to be 13.8 L/kg. Further, the clearance in series [5] is 675 mL/min/kg. This molecule gave a half-life in series [6] of 12 min. The same molecule displayed a bioavailability in series [7] of 16%.

Regarding `COc1c(-c2ccoc2)ccc(NS(=O)(=O)c2ccc(F)cc2NCCCN(C)C)c1C(=O)O`, the EC50 in the series on HT-1080 [2] came to 2.9 µM; with HT-1080 [1], 0.32 µM.

Take `CCN(CC)C/C=C\c1cc(F)ccc1S(=O)(=O)Nc1ccc(-c2ccoc2)c(OC)c1C(=O)O`: the values for the EC50 in the series with HT-1080 [2] and with HT-1080 [1] were 0.2 µM and 0.06 µM, respectively.

Regarding `COc1c(-c2ccoc2)ccc(NS(=O)(=O)c2ccc(F)cc2)c1C(=O)O`, the EC50 in the series with HT-1080 [1] was 3.8 µM.

In the case of `CCc1ccc(NS(=O)(=O)c2ccccc2NCCC2CCCN2C)c(C(=O)O)c1OC` (centres undefined), the concentration for a half-maximal effect (EC50) came out at 1.9 µM with HT-1080 [2] and 0.48 µM with HT-1080 [1]. Moreover, the Cmax in series [3] turned out to be 900 nM. Further, the Vd in series [4] was 2 L/kg. This molecule gave a clearance in series [5] of 83.3 mL/min/kg. For the same molecule, the half-life in series [6] is 18 min. Moreover, the bioavailability in series [7] stood at 13%.

With `CCCc1ccccc1S(=O)(=O)Nc1ccc(CC)c(OCCN)c1C(=O)O`, the EC50 in the series with HT-1080 [1] was determined as 83 µM.

On to `COc1c(-c2ccoc2)ccc(NS(=O)(=O)c2ccc(F)cc2Br)c1C(=O)O`, for which the EC50 in the series on HT-1080 [1] is 11 µM.

Turning to `CCc1ccc(NS(=O)(=O)c2ccccc2NCCCN2CCCCC2C)c(C(=O)O)c1OC` (centres undefined), the EC50 was 1.2 µM with HT-1080 [2] and 0.37 µM with HT-1080 [1].
